Experimental data from patent publication US7214713B2, “Antraquinone compositions as anticancer compositions and nutrition supplements and methods of making and using them” (priority 2000, dated 2007).

Test system: ascitic form of Gardner lymphosarcoma (IP-LsG)
Experiment: anti-cancer screening in mice with ascitic Gardner lymphosarcoma
Type: in vivo
Details: for weight coefficient (weight loss in comparison with the control group): one week after the start of the therapy
Experimental: The red colorant isolated under the above-described conditions and having the above-mentioned characteristics was subjected to a screening study for anti-cancer properties.
The tested substance was administered to mice suffering from the ascitic form of Gardner lymphosarcoma (IP-LsG). 6-(2-(2-hydroxyethyl)aminoethyl)-5,11-dioxo-5,6-dihydro-11H-indeno[1,2-c]isoquinoline hydrochloride having the summary formula C20H18N2O3.HCl was used as a reference substance.
Female C3H mice weighing 26.1 to 27.3 g were used. The animals were kept in plastic containers and fed with the NOE diet made by RATIO, s.r.o., Breclav, Czech Republic, and with potable water ad libitum. The temperature in the room was maintained, the relative humidity was 60%, and the light regimen was not regulated.
The Gardner lymphosarcoma is maintained in the ascitic form in the C3H mice by inoculating ascitic cells removed a week after the previous inoculation by puncturing the abdominal cavity. The mice are administered with 0.2 ml of the ascites diluted with an isotonic solution of sodium chloride for injections intraperitoneally 10 to 20 times. The cell material for tests is obtained by puncturing the abdominal cavity on the seventh day following inoculation. For the therapeutic test, the inoculation with the ascites diluted with an isotonic solution of sodium chloride for injections was made by administering 10^7 cells in a volume of 0.2 ml i.p. to each animal.
The C3H mice were over 6 weeks old, weighing 26.1 to 27.3 g, in groups of 10 animals, the control was-common. Two dosage groups were used for each route of administration and for one substance tested.
The dosage levels: 200 and 100 mg/kg×5 p.o. and 100 and 50 mg/kg×5 s.c. in a volume 0.2 to 0.4 ml and 0.2 to 0.4 ml p.o. (reference substance), resp. for 20 g body weight. Frequency of administration: 1× daily beginning on the first day. The tested substance was administered in a continuous pattern on the 1st to 5th days in doses given in Table 1 and the reference substance was administered p.o. once on the 1st day.
After the administration was finished, the animals were left for monitoring the survival time. The dose dependence of the survival time was evaluated in comparison with the non-administered control. Time as a biological response was currently evaluated by means of the non-parametric test according to Hájek (Fabián V.: Základní statistické metody (“Basic Statistical Methods”), NCSAV, Prague 1963).
After the experiment was complete, time in case of point estimates was evaluated using the test of identity of two means (Student t-test) under the presumption of logarithmic-normal distribution of time values and under the presumption of various unknown variances (Roth Z., Josífko M., Malý V., Trcka V.: Statistické metody v experimentální medicíne (“Statistical Methods in Experimental Medicine”); p. 278, SZN, Prague 1962). Geometrical averages were calculated from the individual values of time to death. The differences In average values in which the value of the test criterion has exceeded the critical value for the significance level of 5% were designated as statistically significant.

[1] = 100 mg/kg p.o. once on the 1st day
[2] = 200 mg/kg p.o. once on the 1st day

SMILES: Cl.O=C1c2ccccc2-c2c1c1ccccc1c(=O)n2CCNCCO [reference, 6-(2-(2-hydroxyethyl)aminoethyl)-5,11-dioxo-5,6-dihydro-11H-indeno[1,2-c]isoquinoline hydrochloride]
- median of time to death [1]: >48.5 days
- survival LTS (number of animals surviving on day 65) [1]: 5/10
- weight coefficient (weight loss in comparison with the control group) [1]: −6.67%
- median of time to death [2]: >65.0 days
- survival LTS (number of animals surviving on day 65) [2]: 10/10
- weight coefficient (weight loss in comparison with the control group) [2]: −14.63%
